# Publication PMC13198932, “Pyrazolone-based ERO1 inhibitors in ERO1-driven triple-negative breast cancer and SEPN1-related myopathy: Structure–activity relationship and therapeutic potential” (Pharmacological research, 2025)
# Key:
# [1] = target: T1, ERO1 in WT and SEPN1 KO myotubes (Mus musculus, UniProt Q8R180); assay: ERO1 redox state by non-reducing immunoblot in WT and SEPN1 KO myotubes; type: cell-based, mice; details: 3 h treatment
# T1 construct: endogenous in cells; host or cells: primary myotubes from WT and SEPN1 KO C57BL/6 mice
# T1 sequence (Q8R180 24-464): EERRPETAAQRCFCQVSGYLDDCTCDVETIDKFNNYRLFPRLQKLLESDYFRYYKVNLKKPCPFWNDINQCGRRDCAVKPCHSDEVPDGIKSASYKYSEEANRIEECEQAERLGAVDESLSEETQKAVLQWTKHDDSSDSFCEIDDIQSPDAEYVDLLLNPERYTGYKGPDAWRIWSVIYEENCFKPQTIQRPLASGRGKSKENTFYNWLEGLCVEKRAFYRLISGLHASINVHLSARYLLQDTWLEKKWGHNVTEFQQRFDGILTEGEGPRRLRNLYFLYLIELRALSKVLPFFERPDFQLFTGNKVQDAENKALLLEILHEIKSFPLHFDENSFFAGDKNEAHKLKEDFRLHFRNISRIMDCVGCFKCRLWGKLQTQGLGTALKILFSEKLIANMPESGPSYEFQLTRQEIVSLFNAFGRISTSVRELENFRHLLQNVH
# Procedure: Muscle stem cells were isolated from muscles of 1-month-old wild-type (WT) and SEPN1 knockout (KO) mice using a tissue dissociation protocol with the gentleMACS™ Octo Dissociator with Heaters (Miltenyi Biotec, Bergisch Gladbach, Germany), followed by magnetic depletion. To generate myotubes, cells were cultured on Matrigel-coated Ibidi μ-Slide 8 well chambers (Cat. No. 80826, Ibidi GmbH, Gräfelfing, Germany) in DMEM (EuroClone, Pero, Milan, Italy) supplemented with 20 % fetal bovine serum (EuroClone), 3 % chick embryo extract (Cat. 11485015, Fisher Scientific SAS), 10 ng/mL basic fibroblast growth factor (Cat. 13256029, Life Technologies Europe BV), 1 % GlutaMAX (Gibco; Thermo Fisher Scientific, Waltham, MA, USA), and 1 % penicillin-streptomycin (EuroClone).
# After 48 h of proliferation, cells were cultured for an additional 2 days in medium containing 2 % horse serum (EuroClone) to induce differentiation, then harvested for analysis. For ERO1 redox state, cells were treated for 3 h with either EN460 or I29, harvested and followed by a non-reducing ERO1 Immunoblot.
# [2] = test system: WT and SEPN1 KO myotubes; assay: TMRM staining of mitochondrial membrane potential in WT and SEPN1 KO myotubes; type: cell-based, mice; details: 1–5 μM, 16 h treatment
# Procedure: Muscle stem cells were isolated from muscles of 1-month-old wild-type (WT) and SEPN1 knockout (KO) mice using a tissue dissociation protocol with the gentleMACS™ Octo Dissociator with Heaters (Miltenyi Biotec, Bergisch Gladbach, Germany), followed by magnetic depletion. […]
# After 16 h of treatment with EN460 or I29 in differentiation medium, the culture medium was removed and replaced with the TMRM staining solution for the assessment of mitochondrial membrane potential. […] TMRM fluorescence was acquired at λexc 561 nm / λem 595 nm by a Nikon A1 confocal system equipped with an Okolab stage incubator (CO2 5 %, 37°C, 90 % humidity) immediately after TMRM and over a 10-minute baseline period with 65 s time interval. […] Data were analyzed using ImageJ. Briefly, background noise was set to NaN and the remaining signal quantified as mean pixel gray values. Data were expressed as ΔF/F0 (F0= mean of baseline signal).
structure (smiles),measurement,setting,value
O=C1/C(=C/c2ccc(-c3ccccc3)o2)C(C(F)(F)F)=NN1c1ccccc1F [I29],reduced state of ERO1 compared with EN460,[1],more effective than EN460
same,TMRM fluorescence (mitochondrial membrane potential),[2],significant increase in TMRM fluorescence
